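Five concentrations, 48 hours, 96-well plates. GI50 is the concentration that inhibits growth by half.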 Activity calls are given as the source filed them. Rule as the data show it: active = GI50 up to about 1.1 µM and inactive = higher.
Experiments:
Experiment in all cases: growth of human tumour cells (NCI), 48 h
[1] = test system: HCC 2998
[2] = test system: UACC-62
[3] = test system: LOX IMVI
[4] = test system: NCI-H23
[5] = test system: SK-MEL-28
[6] = test system: 786-0
[7] = test system: HOP-62
[8] = test system: NCI-H226
[9] = test system: NCI-H522
[10] = test system: SF-295
[11] = test system: MCF7
[12] = test system: RPMI-8226
[13] = test system: SNB-75
[14] = test system: OVCAR-4
[15] = test system: A498
[16] = test system: HT-29
[17] = test system: MDA-MB-435
[18] = test system: SNB-19
[19] = test system: UACC-257
[20] = test system: EKVX

| SMILES | GI50 [1] | GI50 [2] | GI50 [3] | GI50 [4] | GI50 [5] | GI50 [6] | GI50 [7] | GI50 [8] | GI50 [9] | GI50 [10] | GI50 [11] | GI50 [12] | GI50 [13] | GI50 [14] | GI50 [15] | GI50 [16] | GI50 [17] | GI50 [18] | GI50 [19] | GI50 [20] |
| --- | --- | --- | --- | --- | --- | --- | --- | --- | --- | --- | --- | --- | --- | --- | --- | --- | --- | --- | --- | --- |
| O=C(C=P(c1ccccc1)(c1ccccc1)c1ccccc1)c1ccccc1-c1ccccc1C(=O)C=P(c1ccccc1)(c1ccccc1)c1ccccc1 | 0.0319 µM (active) | < 0.0163 µM (active) | 0.018 µM (active) | 0.018 µM (active) | 0.178 µM (active) | 0.0344 µM (active) | 0.0311 µM (active) | 0.0221 µM (active) | 0.014 µM (active) | 0.0269 µM (active) | < 0.01 µM (active) | < 0.01 µM (active) | 0.0206 µM (active) | 0.029 µM (active) | 0.0264 µM (active) | 0.0236 µM (active) | 0.0267 µM (active) | 0.0288 µM (active) | < 0.01 µM (active) | 0.185 µM (active) |
| CCN(CC)CC[S+]([O-])c1c2cc(OC)ccc2nc2ccc(OC)cc12 (centres undefined) | 18.3 µM (inactive) | 17.8 µM (inactive) | 3.23 µM (inactive) | 7.64 µM (inactive) | 14.7 µM (inactive) | 2.02 µM (inactive) | 19.4 µM (inactive) | 18.1 µM (inactive) | 0.603 µM (active) | 21.8 µM (inactive) | 2.42 µM (inactive) | 2.63 µM (inactive) | 19.6 µM (inactive) | 14.4 µM (inactive) | 16.3 µM (inactive) | 3.44 µM (inactive) | 9.46 µM (inactive) | 22.7 µM (inactive) | 5.08 µM (inactive) | 15 µM (inactive) |
| N#CC1=C2Sc3ccccc3N2[C@H](c2ccccc2)[C@H]2COC(=O)[C@@H]12 | > 100 µM (inactive) | 67.1 µM (inactive) | 26.3 µM (inactive) | 77.3 µM (inactive) | > 100 µM (inactive) | > 100 µM (inactive) | > 100 µM (inactive) | > 100 µM (inactive) | 11.2 µM (inactive) | > 100 µM (inactive) | 31 µM (inactive) | 22.6 µM (inactive) | 21.6 µM (inactive) | > 100 µM (inactive) | 54.8 µM (inactive) |  | > 100 µM (inactive) | > 100 µM (inactive) | > 100 µM (inactive) | > 100 µM (inactive) |
| O=C1C(CN2CCOCC2)CCCC1CN1CCOCC1 (centres undefined) | 5.27 µM (inactive) | 7.85 µM (inactive) | 3.28 µM (inactive) | 6 µM (inactive) | 1.95 µM (inactive) | 1.16 µM (inactive) | > 100 µM (inactive) | 20.6 µM (inactive) | 0.0597 µM (active) | 33.4 µM (inactive) | 0.303 µM (active) | 0.296 µM (active) | 14 µM (inactive) | 2.18 µM (inactive) | 23 µM (inactive) | 1.76 µM (inactive) | 14.4 µM (inactive) | 30.8 µM (inactive) | 2.09 µM (inactive) | 4.23 µM (inactive) |
| O=S(=O)(/C=C/C=C/[S+]([O-])c1ccccc1)c1ccccc1 (centres undefined) | > 10 µM (inactive) | 1.44 µM (inactive) | 1.03 µM (active) | 1.96 µM (inactive) | 1.98 µM (inactive) | 0.625 µM (active) | > 10 µM (inactive) | > 10 µM (inactive) | 1.59 µM (inactive) | > 10 µM (inactive) | 0.887 µM (active) | 0.875 µM (active) | 4.66 µM (inactive) | 1.59 µM (inactive) | 6.97 µM (inactive) | 2.21 µM (inactive) | 2.07 µM (inactive) | > 10 µM (inactive) | 1.67 µM (inactive) | > 10 µM (inactive) |
| O=C(OCC1CC(C2(O)CCCCC2)C(=O)O1)c1ccccc1 (centres undefined) | > 100 µM (inactive) | > 100 µM (inactive) | > 100 µM (inactive) | > 100 µM (inactive) | > 100 µM (inactive) | > 100 µM (inactive) | > 100 µM (inactive) | > 100 µM (inactive) | > 100 µM (inactive) | > 100 µM (inactive) | > 100 µM (inactive) | > 100 µM (inactive) | > 100 µM (inactive) | > 100 µM (inactive) | > 100 µM (inactive) | > 100 µM (inactive) | > 100 µM (inactive) | > 100 µM (inactive) | > 100 µM (inactive) | > 100 µM (inactive) |
| Cc1cc2ccccc2oc(=O)/c1=N\Nc1ccccc1 | > 100 µM (inactive) | 19.2 µM (inactive) | 60.1 µM (inactive) | 78.5 µM (inactive) | > 100 µM (inactive) | 25.6 µM (inactive) | 19.3 µM (inactive) | 47.9 µM (inactive) | 65.5 µM (inactive) | 32.6 µM (inactive) | 83.2 µM (inactive) | > 100 µM (inactive) | 20.9 µM (inactive) | 48.1 µM (inactive) | > 100 µM (inactive) | 64.6 µM (inactive) | > 100 µM (inactive) | 36.2 µM (inactive) | > 100 µM (inactive) | 37.2 µM (inactive) |
| COc1cc(OC)c(/C=N\Nc2nc3ccccc3c(=O)n2-c2ccccc2)c(OC)c1 | 39.6 µM (inactive) | 19.5 µM (inactive) | 23.2 µM (inactive) | 58.5 µM (inactive) | 27.4 µM (inactive) | 17.7 µM (inactive) | 19.4 µM (inactive) | 19.4 µM (inactive) | 26.6 µM (inactive) | 25.6 µM (inactive) | > 47.1 µM (inactive) | 26.4 µM (inactive) | 24.9 µM (inactive) | 28.8 µM (inactive) | 11.8 µM (inactive) | 24.5 µM (inactive) | 24.5 µM (inactive) | 24 µM (inactive) | 27.5 µM (inactive) | 26.9 µM (inactive) |
| COc1ccc(/C=C(/c2ccccc2)c2c(C)cc(C)c(/C(=C\c3ccc(OC)cc3)c3ccccc3)c2/N=N/c2cc(C)cc(C)c2)cc1 | 8.34 µM (inactive) | 45.6 µM (inactive) | 24.2 µM (inactive) | 14.4 µM (inactive) | > 100 µM (inactive) | 13.7 µM (inactive) | 20.9 µM (inactive) | 34.2 µM (inactive) | 15 µM (inactive) | 24.7 µM (inactive) | 9.91 µM (inactive) | 6.07 µM (inactive) | 6.92 µM (inactive) | 20.1 µM (inactive) | 32.7 µM (inactive) | 9.71 µM (inactive) | 14.6 µM (inactive) | 15.5 µM (inactive) | 7.69 µM (inactive) | 30 µM (inactive) |
| COc1ccc(/C=C2\CCC(CNc3cc(C)on3)C2=O)cc1 (centres undefined) | > 44.9 µM (inactive) | > 100 µM (inactive) | > 100 µM (inactive) | > 78.2 µM (inactive) | > 100 µM (inactive) | > 100 µM (inactive) | 47.4 µM (inactive) | > 100 µM (inactive) | 79.8 µM (inactive) | 74.6 µM (inactive) | > 100 µM (inactive) | > 100 µM (inactive) | 29.4 µM (inactive) | > 100 µM (inactive) | > 72.4 µM (inactive) | > 100 µM (inactive) | > 100 µM (inactive) | 64.4 µM (inactive) | > 94.6 µM (inactive) | > 100 µM (inactive) |
| CC(/C=N\NC(=S)N(C)C)=N/NC(=S)N(C)C | 2.49 µM (inactive) | 0.764 µM (active) | 0.273 µM (active) | 1.12 µM (inactive) | 4.52 µM (inactive) | 0.509 µM (active) | 0.327 µM (active) | 0.843 µM (active) | 0.243 µM (active) | 0.147 µM (active) | 0.759 µM (active) | 0.791 µM (active) | 0.557 µM (active) | 5.16 µM (inactive) | 2.88 µM (inactive) | 0.0995 µM (active) | 0.881 µM (active) | 0.721 µM (active) | 2.61 µM (inactive) | 0.832 µM (active) |
| CC(=O)OC1CC[C@@]2(C)C(CC[C@]3(C)C2CC=C2[C@@H]4C(C)[C@H](C)CCC4(C)CCC23C)[C@@]1(C)C(=O)O (some centres undefined) | 19.1 µM (inactive) | 17 µM (inactive) | 20.9 µM (inactive) | 22.5 µM (inactive) | 23.7 µM (inactive) | 23.2 µM (inactive) | 20.7 µM (inactive) | 22.1 µM (inactive) | 19.2 µM (inactive) | 17.6 µM (inactive) | 16 µM (inactive) | 21.9 µM (inactive) | 19.2 µM (inactive) | 26 µM (inactive) | 19.5 µM (inactive) | 21.2 µM (inactive) | 19.8 µM (inactive) | 22.9 µM (inactive) | 21 µM (inactive) | 18 µM (inactive) |
| COc1cc2cc(C(=O)N3CC(CCl)c4c3cc([N+](=O)[O-])c3ccccc43)[nH]c2c(OC)c1OC (centres undefined) | 14.1 µM (inactive) | 15.9 µM (inactive) | 49.9 µM (inactive) | 27.2 µM (inactive) | > 100 µM (inactive) | 29.3 µM (inactive) | 8.91 µM (inactive) | > 100 µM (inactive) | 24.7 µM (inactive) | 14.7 µM (inactive) | 17.3 µM (inactive) | > 100 µM (inactive) | 31.8 µM (inactive) | > 51.2 µM (inactive) | > 40.6 µM (inactive) | 40.6 µM (inactive) | > 100 µM (inactive) | 87.7 µM (inactive) | > 100 µM (inactive) | 16.7 µM (inactive) |
| Cc1ccc2c(c1)NC(=O)CC(c1ccccc1)=N2 | > 100 µM (inactive) | > 100 µM (inactive) | > 100 µM (inactive) | > 100 µM (inactive) | > 100 µM (inactive) | > 100 µM (inactive) | > 100 µM (inactive) | > 100 µM (inactive) | 45.6 µM (inactive) | > 100 µM (inactive) | 71.8 µM (inactive) | 17.4 µM (inactive) | 76.7 µM (inactive) | > 100 µM (inactive) | > 100 µM (inactive) | > 100 µM (inactive) | 31 µM (inactive) | > 100 µM (inactive) | > 100 µM (inactive) | > 100 µM (inactive) |
